# Experimental data: PubChem BioAssay AID2060618 (Molecular Pharmacology Branch, DTP, NCI, 2025)
# Test system: 454973-116-R2-J3-PDC spheroids, percent test/control viability
# Test: Anticancer human tumor 454973-116-R2-J3-PDC patient-derived pancreatic carcinoma cell line growth inhibition [CLK]
# Conditions: spheroids with HUVEC and MSC; for IC50: curve of first compound; for viability, T/C: stronger effect = lower value
# Description: A high-throughput screen of multi-cell type tumor spheroids was designed to identify active combinations of […] and targeted small molecules. Complex spheroids include a stromal component modeled by human endothelial cells (HUVEC) and fibroblasts modeled by human mesenchymal stem cells (MSCs). The concentration ranges selected for each drug and investigational agent were based upon clinically achievable concentrations if the clinical Cmax of the agent was known.
# Compounds. The drugs and investigational agents: cirtuvivint (SM08502; NSC835563), CC-671 (NSC850746), vemurafenib (NSC761431), tapotoclax (NSC804041), sotorasib (NSC818433), adagrasib (NSC831453), MRTX-1133 (NSC836407), BAY2416964 (NSC825713), copanlisib (NSC816437), inavolisib (NSC800729), abemaciclib (NSC768073), osimertinib (NSC779217), entinostat (NSC756642), eltanexor (KPT-8602, NSC794443), venetoclax (NSC766270), ceralasertib (NSC777638), bortezomib (NSC756655), olaparib (NSC753686), talazoparib (NSC767125), alisertib (NSC759677), peposertib (NSC802822), gemcitabine (NSC613327), 5-fluorouracil (NSC19893), SN-38 (NSC673596), oxaliplatin (NSC266046), paclitaxel (NSC125973), and doxorubicin (NSC123127), were obtained from the National Cancer Institute (NCI) Developmental Therapeutics Program Chemical Repository. The FDA-approved anticancer drug set is available from the Developmental Therapeutics Program at https://dtp.cancer.gov/organization/dscb/obtaining/available plates.htm. […] The stock solutions were prepared in dimethyl sulfoxide (DMSO, Sigma-Aldrich, St. Louis, MO, cat. D2650), except for the platinum complexes which were prepared in saline (Quality Biological, Gaithersburg, MD, cat. 114-055-101), at 800-fold the tested concentration and stored at -70 degrees C prior to their use. All drugs and investigational agents were tested over a range starting from a high concentration at or near the clinical Cmax and decreasing in half-log increments. If the clinical Cmax for an agent had not been determined, the highest concentration tested was 10 microM.
# Cell Culture. All cells were maintained in an incubator at 37 degrees C and 5% CO2 with 95% humidity. The PDC lines were cultured according to standard operating procedures established by the NCI PDMR. Briefly, all PDCs were thawed and cultured in Matrigel-coated flasks prepared with a working solution of 1X Ham's F-12 nutrient mix, without supplementation (Invitrogen, Waltham, MA, cat. 11765054), 100 U/mL penicillin-streptomycin (Invitrogen, cat. 15140122), and 2.5% Matrigel (Corning Inc., Corning, NY, cat. 354248) for the first three passages. The 947758-054-R-J2-PDC line was cultured in 6B/Colon 1A media, which includes advanced DMEM/F-12 (Thermo Fisher Scientific, cat. 12634028), 10 mM HEPES (Thermo Fisher Scientific, cat. 15630080), 1X GlutaMAX supplement (Thermo Fisher Scientific, cat. 35050061), 0.1 mg/mL primocin (InvivoGen, cat. ant-pm-2), 10% defined fetal bovine serum, heat inactivated (HyClone Laboratories Inc., cat. SH30070.03HI), 1.25 mM N-Acetyl-L-cysteine (Sigma-Aldrich, cat. A9165), 10 mM nicotinamide (Sigma-Aldrich, cat. N0636), 1X B-27 supplement (Thermo Fisher Scientific, cat. 17504044), 1X N-2 supplement (Thermo Fisher Scientific, cat. 17502048), and 10 microM Y-27632 dihydrochloride (Tocris Bioscience, cat. 1254). The 876862-298-R-J1-PDC was cultured in 6E media, which includes all 6B/Colon 1A media components plus 50% L-WRN conditioned media (ATCC, cat. CRL-3276), 50 ng/mL recombinant human EGF recombinant protein (hEGF; Thermo Fisher Scientific, cat. PHG0311), 10 ng/mL recombinant human fibroblast growth factor 10 (hGFG-10; PeproTech, cat. 100-26), 1 ng/mL recombinant human fibroblast growth factor 2 (hFGF-2; PeproTech, cat. 100-18B), and 1 µM prostaglandin E2 (PGE2; Tocris, cat. 2296). The 227483-062-R1-J1-PDC line was cultured in Panc media, containing all 6E components except hFGF-2, with the addition of 500 nM SB-431542 (Selleckchem, cat. S1067) and 10 nM gastrin (Tocris, cat. 3006). […]
# 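Also: spheroids exposed to compounds for 7 days before readout.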
compound,measurement,setting,value
COC1C=CCC(C)C(C)S(=O)(=O)NC(=O)c2ccc3c(c2)N(CC2CCC21)CC1(CCCc2cc(Cl)ccc21)CO3 (configuration not stated) + CN1CCN(c2cc(C(=O)Nc3cc4cc(-c5cnn(C)c5)ccc4cn3)ccn2)CC1,IC50,second compound 0.0316 µM,4900 nM
same,IC50,second compound 0.1 µM,621 nM
same,IC50,second compound 0.316 µM,< 31.6 nM
same,IC50,second compound 1 µM,< 31.6 nM
same,IC50,second compound 3.16 µM,< 31.6 nM
same,IC50,second compound 10 µM,< 31.6 nM
same,"viability, T/C","second compound 0.0316 µM, first compound 0.0316 µM",102%
same,"viability, T/C","second compound 0.0316 µM, first compound 0.1 µM",97.9%
same,"viability, T/C","second compound 0.0316 µM, first compound 0.316 µM",92.9%
same,"viability, T/C","second compound 0.0316 µM, first compound 1 µM",92.8%
same,"viability, T/C","second compound 0.0316 µM, first compound 3.16 µM",75.8%
same,"viability, T/C","second compound 0.0316 µM, first compound 10 µM",8.72%
same,"viability, T/C","second compound 0.1 µM, first compound 0.0316 µM",64.4%
same,"viability, T/C","second compound 0.1 µM, first compound 0.1 µM",74.1%
same,"viability, T/C","second compound 0.1 µM, first compound 0.316 µM",52.7%
same,"viability, T/C","second compound 0.1 µM, first compound 1 µM",43.8%
same,"viability, T/C","second compound 0.1 µM, first compound 3.16 µM",27.5%
same,"viability, T/C","second compound 0.1 µM, first compound 10 µM",2.54%
same,"viability, T/C","second compound 0.316 µM, first compound 0.0316 µM",1.25%
same,"viability, T/C","second compound 0.316 µM, first compound 0.1 µM",2.28%
same,"viability, T/C","second compound 0.316 µM, first compound 0.316 µM",2.09%
same,"viability, T/C","second compound 0.316 µM, first compound 1 µM",1.79%
same,"viability, T/C","second compound 0.316 µM, first compound 3.16 µM",1.28%
same,"viability, T/C","second compound 0.316 µM, first compound 10 µM",0.38%
same,"viability, T/C","second compound 1 µM, first compound 0.0316 µM",0.11%
same,"viability, T/C","second compound 1 µM, first compound 0.1 µM",0.13%
same,"viability, T/C","second compound 1 µM, first compound 0.316 µM",2.8%
same,"viability, T/C","second compound 1 µM, first compound 1 µM",0.16%
same,"viability, T/C","second compound 1 µM, first compound 3.16 µM",0.14%
same,"viability, T/C","second compound 1 µM, first compound 10 µM",0.13%
same,"viability, T/C","second compound 3.16 µM, first compound 0.0316 µM",0.17%
same,"viability, T/C","second compound 3.16 µM, first compound 0.1 µM",0.17%
same,"viability, T/C","second compound 3.16 µM, first compound 0.316 µM",0.99%
same,"viability, T/C","second compound 3.16 µM, first compound 1 µM",0.25%
same,"viability, T/C","second compound 3.16 µM, first compound 3.16 µM",0.33%
same,"viability, T/C","second compound 3.16 µM, first compound 10 µM",0.2%
same,"viability, T/C","second compound 10 µM, first compound 0.0316 µM",0.21%
same,"viability, T/C","second compound 10 µM, first compound 0.1 µM",0.17%
same,"viability, T/C","second compound 10 µM, first compound 0.316 µM",0.9%
same,"viability, T/C","second compound 10 µM, first compound 1 µM",0.28%
same,"viability, T/C","second compound 10 µM, first compound 3.16 µM",0.67%
same,"viability, T/C","second compound 10 µM, first compound 10 µM",0.21%
